Test results taken from patent US9371274B2, “Compound having read-through activity” (The University of Tokyo, priority 2011, dated 2016).
Entries after “also recorded” stand apart in the source; their conditions may differ.

What was measured:
[1] = tested on: reporter gene with premature stop codon (TGA) in COS-7 cells; assay: In vitro read-through activity, COS-7 cells transfected with β-galactosidase/luciferase reporter gene; format: cell-based, African green monkey; conditions: for Read-through Activity: same method as Example 16, luciferase activity divided by β-galactosidase activity, 48 hours incubation, concentration for these values not given; for read-through activity / read-through efficiency (FIG. 1-3, in words): COS-7, TGA reporter, compared with negamycin
Description: African green monkey SV40-transformed kidney fibroblast cell line (COS-7) was sown in 100×20 mm cell culture dishes manufactured by Falcon and cultured at 37° C. in 5% CO2. Fifty milliliters of fetal bovine serum (FBS) was added to 500 mL of D-MEM (containing high glucose, L-glutamine, and phenol red) manufactured by Wako Pure Chemical Industries Ltd., and culture broth prepared to adjust to 10% FBS was used as the culture broth. (Referred to hereinafter as culture broth.)
The Reporter Lysis Buffer 5×, assay 2× buffer, 1 M Na2CO3, and standard used in creation of the calibration curve referred to hereinafter are included in the β-Galactosidase Enzyme Assay System with Reporter Lysis Buffer manufactured by Promega.
COS-7 cells (8.0×10^3 cells/well) were seeded by continuous dispensing of 100 μL each into flat-bottom 96-well plates (Costar (registered trade mark) 3596) manufactured by Corning and incubated for 15-16 hours at 37° C.
A quantity of 4 μL/well of DNA solution prepared in a ratio of 1.32 μL (2 μg) of reporter gene (a construct obtained by linking a β-galactosidase gene and a luciferase gene and inserting a premature stop codon (TGA) at their juncture), 100 μL of OPTI-MEM (registered trade mark) I (Reduced Serum Medium 1×) manufactured by Invitrogen, and 4 μL of FuGENE (registered trade mark) HD Transfection Reagent manufactured by Roche was added to the solution and incubated for 10-11 hours at 37° C.
The entire culture broth was aspirated, and the compound to be evaluated was prepared to adjust to 200 μM by culture broth and added by continuously dispensing 200 μL/well. 100 μM and 50 μM were also prepared in the same way and added by continuously dispensing 200 μL each. Incubation was carried out for 48 hours at 37° C. after addition.
After 48 hours had elapsed, the entire culture broth in the well was aspirated and washed twice with PBS. The Reporter Lysis Buffer 5× was then diluted by MilliQ, and a solution prepared to adjust to Reporter Lysis Buffer l× was added by continuously dispensing 100 μL each and allowed to stand for 15 minutes at room temperature. The contents of each well were recovered thereafter, and the entire amount was transferred to Nunc microwell plates (V bottom) manufactured by Thermo Fisher Scientific and centrifuged (1800 rpm, 15 minutes). Eighty-five microliters of this lysate was transferred to Nunc low-binding 96-well plates (flat bottom) clear manufactured by Thermo Fisher Scientific.
Using Nunc low-binding 96-well plates (flat bottom) clear manufactured by Thermo Fisher Scientific, 30 μL/well of Reporter Lysis Buffer l× was added by dispensing continuously, followed by addition of 20 μL of the recovered lysate to make 50 μL. Separately, the standard required for creation of a calibration curve was added to make 0, 1, 2, 3, 4, and 5 mU according to the protocol of the β-Galactosidase Enzyme Assay System with Reporter Lysis Buffer manufactured by Promega. A quantity of 50 μL of Assay 2× buffer was added to each of these wells and incubated for 25 minutes at room temperature. A quantity of 150 μL/well of 1M Na2CO3, a reaction-stopping solution, was added, and the […] (420 nm, reference […]) was measured immediately using an absorption/fluorescence microplate reader Tecan Safire manufactured by Tecan. A calibration curve was created from the absorbance of the standard, and the absorbance converted to mU according to this calibration curve was taken as the activity value.
A quantity of 50 μL/well of the recovered lysate was added to 96-well white plates (Costar (registered trade mark) 3912) manufactured by Corning and incubated for five minutes at room temperature after adding 100 μL of PicaGene (registered trade mark) manufactured by Toyo Ink Co., Ltd. After five minutes, the emission intensity was measured by a Berthold luminometer MicroLumat Plus LB96V manufactured by Berthold Japan. […]

[2] = prior knowledge; cited from earlier work
premature stop codon = assay: Read-through activity stated in the description, test not specified; conditions: statement of the inventors' finding, no test named
[3] = tested on: transgenic mice with luciferase gene and β-galactosidase gene as reporter genes; assay: In vivo read-through activity in reporter transgenic mice (rectus femoris and gastrosoleus muscle); conditions: subcutaneous, every 24 hours for seven consecutive days; muscle excised on the eighth day
Description: Transgenic mice were produced by introducing a luciferase gene and […] gene as reporter genes by the method described in International Publication WO2008/004610 pamphlet.
A physiological saline solution of example compound 2 synthesized in Example 1 was administered subcutaneously to the abdomen of the transgenic mice produced every 24 hours for seven consecutive days. On the eighth day, the rectus femoris and the gastrosoleus muscle of the mice were excised. After mincing by ophthalmological scissors, three times the wet weight of Reporter Lysis Buffer (Promega, US) was added, and the tissue was disrupted by Physcotron (Niti-on Co., Ltd.). After freezing overnight and thawing, the supernatant obtained by centrifugation was introduced into a 96-well plate, and the β-galactosidase activity was measured by a Beta-Glo Assay System (Promega, US) and the luciferase activity was measured by a Bright-Glo Assay System (Promega, US). A luminometer (ATTO) was used in measurement. The luciferase activity value was divided by the […] activity value, and the value multiplied by 10^4 was taken as the read-through efficiency.

CN(CC(=O)O)NC(=O)C[C@H](CCN)NC(=O)[C@@H](N)Cc1ccc(O)cc1 [compound 39]
Read-through Activity [1]: 1.63 ± 0.14

CC(C)C[C@H](N)C(=O)N[C@@H](CC(=O)CN)CC(=O)NN(C)CC(=O)O [3-N-leucyl-3-epi-5-dehydronegamycin]
antimicrobial activity (in words) [2]: no antimicrobial activity
read-through activity (in words) (premature stop codon): potent read-through activity

CC(C)C[C@H](N)C(=O)N[C@@H](CCCN)CC(=O)NN(C)CC(=O)O [Example Compound 7, 2-(2-((S)-6-amino-3-((S)-2-amino-4-methylpentanamide)hexanoyl)-1-methylhydrazinyl)acetic acid]
read-through activity / read-through efficiency (FIG. 1-3, in words) [1]: remarkably high read-through efficiency in comparison even to negamycin

CN(CC(=O)O)NC(=O)C[C@H](CCN)NC(=O)[C@@H](N)CCCN [compound 46]
Read-through Activity [1]: 1.60 ± 0.13

CN(CC(=O)O)NC(=O)C[C@@H](N)CCCN [Example Compound 2, (S)-2-(2-(3,6-diaminohexanoyl)-1-methylhydrazinyl)acetic acid]
read-through activity / read-through efficiency (FIG. 1-3, in words) [1]: remarkably high read-through efficiency in comparison even to negamycin
read-through activity in vivo (FIG. 4, in words) [3]: high read-through activity even in comparison to gentamicin and 5-epi-negamycin

CN(CC(=O)O)NC(=O)C[C@@H](N)CCNCc1ccccc1 [compound 33]
Read-through Activity [1]: 2.34 ± 0.11

CN(CC(=O)O)NC(=O)C[C@@H](N)CCNC(=O)CN [compound 29]
Read-through Activity [1]: 2.84 ± 0.06

C[C@H](N)C(=O)N[C@@H](CCN)CC(=O)NN(C)CC(=O)O [compound 41]
Read-through Activity [1]: 1.57 ± 0.05

CN(CC(=O)O)NC(=O)C[C@@H](N)CCNCc1ccccc1 [compound 28]
Read-through Activity [1]: 1.40 ± 0.04

CC(C)C[C@@H](N)C(=O)N[C@@H](CCCN)CC(=O)NN(C)CC(=O)O [compound 18]
Read-through Activity [1]: 1.30 ± 0.09

CCCCCNCC[C@H](N)CC(=O)NN(C)CC(=O)O [compound 27]
Read-through Activity [1]: 1.64 ± 0.12

CN(CC(=O)O)NC(=O)C[C@H](CCCN)NC(=O)[C@@H](N)Cc1ccccc1 [compound 19]
Read-through Activity [1]: 3.25 ± 0.07

CN(CC(=O)O)NC(=O)C[C@@H](N)CCNC(=O)CN [compound 34]
Read-through Activity [1]: 2.00 ± 0.13

CN(CC(=O)O)NC(=O)CC(N)CCCN (stereo not drawn) [3-Epi-5-dehydroxynegamycin]
antimicrobial activity (in words) [2]: weak antimicrobial activity

CC(C)[C@H](N)C(=O)N[C@@H](CCN)CC(=O)NN(C)CC(=O)O [compound 35]
Read-through Activity [1]: 3.09 ± 0.62

CC(C)C[C@@H](N)C(=O)N[C@@H](CCCN)CC(=O)NN(C)CC(=O)O [compound 23]
Read-through Activity [1]: 5.65 ± 0.09

CN(CC(=O)O)NC(=O)C[C@H](CCN)NC(=O)[C@@H](N)CCN [compound 40]
Read-through Activity [1]: 1.50 ± 0.05

CCCNCC[C@H](N)CC(=O)NN(C)CC(=O)O [compound 26]
Read-through Activity [1]: 1.44 ± 0.04

CN(CC(=O)O)NC(=O)C[C@H](CCN)NC(=O)[C@@H](N)CC(=O)O [compound 44]
Read-through Activity [1]: 1.58 ± 0.05

CN(CC(=O)OCc1ccccc1Br)NC(=O)C[C@@H](N)CCN [compound 20]
Read-through Activity [1]: 7.07 ± 0.45

CN(CC(=O)O)NC(=O)C[C@H](N)C[C@@H](O)CN [negamycin, methylhydrazinoacetic acid-linked δ-hydroxy-β-lysine, reference compound]
antimicrobial activity (in words) [2]: high antimicrobial activity
Read-through Activity [1]: 1.53±0.04

CN(CC(=O)O)NC(=O)C[C@H](CCN)NC(=O)[C@@H](N)CCN [compound 45]
Read-through Activity [1]: 1.65 ± 0.18

CN(CC(=O)OCc1ccc(Br)cc1)NC(=O)C[C@@H](N)CCN [compound 22]
Read-through Activity [1]: 5.18 ± 0.04

C[C@H](N)C(=O)N[C@@H](CCN)CC(=O)NN(C)CC(=O)O [compound 36]
Read-through Activity [1]: 1.92 ± 0.40

CN(CC(=O)OCc1ccccc1)NC(=O)C[C@@H](N)CCN [compound 24]
Read-through Activity [1]: 3.89 ± 0.16

CC[C@H](C)[C@H](N)C(=O)N[C@@H](CCN)CC(=O)NN(C)CC(=O)O [compound 38]
Read-through Activity [1]: 1.75 ± 0.19

CN(CC(=O)O)NC(=O)C[C@H](CCN)NC(=O)CN [compound 37]
Read-through Activity [1]: 2.78 ± 0.67

CN(CC(=O)O)NC(=O)C[C@H](CCCN)NC(=O)[C@@H](N)Cc1ccccc1 [compound 14]
Read-through Activity [1]: 2.13 ± 0.08

CN(CC(=O)O)NC(=O)C[C@H](CCCN)NC(=O)CN [compound 17]
Read-through Activity [1]: 2.10 ± 0.90

CCOC(=O)CN(C)NC(=O)C[C@@H](N)CCCN [Example Compound 5, (S)-ethyl 2-(2-(3,6-diaminohexanoyl)-1-methylhydrazinyl)acetate]
read-through activity / read-through efficiency (FIG. 1-3, in words) [1]: remarkably high read-through efficiency in comparison even to negamycin

CN(CC(=O)O)NC(=O)C[C@H](CCN)NC(=O)[C@@H](N)CCCCN [compound 42]
Read-through Activity [1]: 2.14 ± 0.18

CN(CC(=O)O)NC(=O)CC(N)CC(O)CN (stereo not drawn) [5-epi-negamycin]
read-through activity (in words) (premature stop codon): has read-through activity

CC[C@H](C)[C@H](N)C(=O)N[C@@H](CCN)CC(=O)NN(C)CC(=O)O [compound 43]
Read-through Activity [1]: 2.20 ± 0.05

CN(CC(=O)O)NC(=O)C[C@@H](N)CCNS(C)(=O)=O [compound 32]
Read-through Activity [1]: 1.24 ± 0.09

CN(CC(=O)OCc1ccccc1Br)NC(=O)C[C@@H](N)CCN [compound 25]
Read-through Activity [1]: 1.26 ± 0.07

CC(C)[C@H](N)C(=O)N[C@@H](CCCN)CC(=O)NN(C)CC(=O)O [compound 16]
Read-through Activity [1]: 1.87 ± 0.29

CCOC(=O)N(CC(=O)O)NC(=O)C[C@@H](N)CCCN [compound 15]
Read-through Activity [1]: 1.92 ± 0.21

CN(CC(=O)O)NC(=O)C[C@@H](N)CCN [Example Compound 3, (S)-2-(2-(3,5-diaminopentanoyl)-1-methylhydrazinyl)acetic acid]
read-through activity / read-through efficiency (FIG. 1-3, in words) [1]: remarkably high read-through efficiency in comparison even to negamycin; also recorded: read-through efficiency equal to or greater than that of negamycin
